Laboratory results reported in patent US12479816B2, “20-HETE formation inhibitors” (UNIVERSITY OF PITTSBURGH—OF THE COMMONWEALTH SYSTEM OF …, priority 2019, dated 2025).

Molecular target: T1, rCYP4F2 (Homo sapiens, UniProt P78329)
T1 sequence (P78329 5-520): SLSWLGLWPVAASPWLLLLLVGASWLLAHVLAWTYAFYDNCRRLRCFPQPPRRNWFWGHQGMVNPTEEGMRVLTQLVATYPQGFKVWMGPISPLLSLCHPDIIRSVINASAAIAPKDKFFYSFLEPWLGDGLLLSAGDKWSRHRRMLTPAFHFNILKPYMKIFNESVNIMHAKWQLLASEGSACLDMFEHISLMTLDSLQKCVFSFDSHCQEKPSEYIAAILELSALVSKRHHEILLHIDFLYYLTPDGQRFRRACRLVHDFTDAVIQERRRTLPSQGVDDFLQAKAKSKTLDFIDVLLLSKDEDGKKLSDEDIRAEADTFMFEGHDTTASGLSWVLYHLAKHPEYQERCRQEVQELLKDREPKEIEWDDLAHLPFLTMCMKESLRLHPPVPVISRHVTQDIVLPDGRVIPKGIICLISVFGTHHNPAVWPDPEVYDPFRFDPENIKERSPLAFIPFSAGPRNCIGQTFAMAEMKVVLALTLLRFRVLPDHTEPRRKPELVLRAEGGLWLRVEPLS
Assay: Inhibition of 20-HETE formation at 250 or 500 nM in rCYP4F2 incubations
Format: biochemical
Conditions: 500 nM compound; rCYP4F2 25 pmol/mL; read-out: rCYP4F2 % inh. @ 500 nM
Summary of the method: (§1)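 Liver or kidney microsomes (300 μg/ml) or rCYP4F2 (25 pmol/mL) were incubated with 100 μM arachidonic acid, 1 mM NADPH and compound at 250 or 500 nM in 0.12 M potassium phosphate/5 mM MgCl2 for 20 min at 37 °C. 20-HETE was measured by UPLC-MS/MS against 20-HETE-d6 and expressed as % of vehicle (n=3).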

| SMILES | inhibition at 0.5 µM [%] |
| --- | --- |
| O=S(=O)(c1ccccc1)C1CCN(c2ccn[nH]2)CC1 [Compound 41, 4-(Phenylsulfonyl)-1-(1H-pyrazol-5-yl)piperidine] | 0 |
| O=S(=O)(c1ccccc1)C1CCN(c2cn[nH]c2)CC1 [Compound 42, 4-(Phenylsulfonyl)-1-(1H-pyrazol-4-yl)piperidine] | 28 |
| COc1ccc(C2CCN(c3ccn[nH]3)CC2)cc1F [Compound 43, 4-(3-Fluoro-4-methoxyphenyl)-1-(1H-pyrazol-5-yl)piperidine] | 79 |
| COc1cccc(CC2CCN(c3cn[nH]c3)CC2)c1 [Compound 45, 4-(3-Methoxybenzyl)-1-(1H-pyrazol-4-yl)piperidine] | 73 |
| COc1ccc(C2CCN(c3ccn[nH]3)CC2)c(F)c1 [Compound 46, 4-(2-Fluoro-4-methoxyphenyl)-1-(1H-pyrazol-5-yl)piperidine] | 88 |
| Fc1cccc(C2CCN(c3ccn[nH]3)CC2)c1 [Compound 48, 4-(3-Fluorophenyl)-1-(1H-pyrazol-5-yl)piperidine] | 63 |
| Fc1cccc(C2CCN(c3cn[nH]c3)CC2)c1 [Compound 49, 4-(3-Fluorophenyl)-1-(1H-pyrazol-4-yl)piperidine] | 90 |
| Fc1ccccc1C1CCN(c2ccn[nH]2)CC1 [Compound 50, 4-(2-Fluorophenyl)-1-(1H-pyrazol-5-yl)piperidine] | 69 |
| Fc1ccccc1C1CCN(c2cn[nH]c2)CC1 [Compound 51, 4-(2-Fluorophenyl)-1-(1H-pyrazol-4-yl)piperidine] | 94 |

Tested on: 20-HETE formation (CYP4) in RLM
Assay: Inhibition of 20-HETE formation at 250 or 500 nM in RLM microsomal incubations
Format: biochemical, rat
Conditions: 500 nM compound; RLM 300 μg/ml
Summary of the method: as §1

| SMILES | RLM % inh. @ 500 nM [%] |
| --- | --- |
| O=S(=O)(c1ccccc1)C1CCN(c2ccn[nH]2)CC1 [Compound 41, 4-(Phenylsulfonyl)-1-(1H-pyrazol-5-yl)piperidine] | 0.00 |
| O=S(=O)(c1ccccc1)C1CCN(c2cn[nH]c2)CC1 [Compound 42, 4-(Phenylsulfonyl)-1-(1H-pyrazol-4-yl)piperidine] | 0.00 |
| COc1ccc(C2CCN(c3ccn[nH]3)CC2)cc1F [Compound 43, 4-(3-Fluoro-4-methoxyphenyl)-1-(1H-pyrazol-5-yl)piperidine] | 17.00 |
| COc1cccc(CC2CCN(c3cn[nH]c3)CC2)c1 [Compound 45, 4-(3-Methoxybenzyl)-1-(1H-pyrazol-4-yl)piperidine] | 24.00 |
| COc1ccc(C2CCN(c3ccn[nH]3)CC2)c(F)c1 [Compound 46, 4-(2-Fluoro-4-methoxyphenyl)-1-(1H-pyrazol-5-yl)piperidine] | 47.00 |
| Fc1cccc(C2CCN(c3ccn[nH]3)CC2)c1 [Compound 48, 4-(3-Fluorophenyl)-1-(1H-pyrazol-5-yl)piperidine] | 0.00 |
| Fc1cccc(C2CCN(c3cn[nH]c3)CC2)c1 [Compound 49, 4-(3-Fluorophenyl)-1-(1H-pyrazol-4-yl)piperidine] | 31.00 |
| Fc1ccccc1C1CCN(c2ccn[nH]2)CC1 [Compound 50, 4-(2-Fluorophenyl)-1-(1H-pyrazol-5-yl)piperidine] | 16.00 |
| Fc1ccccc1C1CCN(c2cn[nH]c2)CC1 [Compound 51, 4-(2-Fluorophenyl)-1-(1H-pyrazol-4-yl)piperidine] | 53.00 |

Tested on: 20-HETE formation (CYP4) in HLM
Assay: Inhibition of 20-HETE formation at 250 or 500 nM in HLM microsomal incubations
Format: biochemical, human
Conditions: 500 nM compound; HLM 300 μg/ml, AA 100 μM, 20 min
Summary of the method: as §1

| SMILES | HLM % inh. @ 500 nM [%] |
| --- | --- |
| O=S(=O)(c1ccccc1)C1CCN(c2ccn[nH]2)CC1 [Compound 41, 4-(Phenylsulfonyl)-1-(1H-pyrazol-5-yl)piperidine] | 32.00 |
| O=S(=O)(c1ccccc1)C1CCN(c2cn[nH]c2)CC1 [Compound 42, 4-(Phenylsulfonyl)-1-(1H-pyrazol-4-yl)piperidine] | 5.00 |
| COc1ccc(C2CCN(c3ccn[nH]3)CC2)cc1F [Compound 43, 4-(3-Fluoro-4-methoxyphenyl)-1-(1H-pyrazol-5-yl)piperidine] | 82.00 |
| COc1cccc(CC2CCN(c3cn[nH]c3)CC2)c1 [Compound 45, 4-(3-Methoxybenzyl)-1-(1H-pyrazol-4-yl)piperidine] | 71.00 |
| COc1ccc(C2CCN(c3ccn[nH]3)CC2)c(F)c1 [Compound 46, 4-(2-Fluoro-4-methoxyphenyl)-1-(1H-pyrazol-5-yl)piperidine] | 78.00 |
| Fc1cccc(C2CCN(c3ccn[nH]3)CC2)c1 [Compound 48, 4-(3-Fluorophenyl)-1-(1H-pyrazol-5-yl)piperidine] | 67.00 |
| Fc1cccc(C2CCN(c3cn[nH]c3)CC2)c1 [Compound 49, 4-(3-Fluorophenyl)-1-(1H-pyrazol-4-yl)piperidine] | 80.00 |
| Fc1ccccc1C1CCN(c2ccn[nH]2)CC1 [Compound 50, 4-(2-Fluorophenyl)-1-(1H-pyrazol-5-yl)piperidine] | 47.00 |
| Fc1ccccc1C1CCN(c2cn[nH]c2)CC1 [Compound 51, 4-(2-Fluorophenyl)-1-(1H-pyrazol-4-yl)piperidine] | 77.00 |

Tested on: not listed separately
Assay: Turbidometric solubility determination
Format: physicochemical
Conditions: PBS with 1% DMSO, aqueous buffer, kinetic from dmso stock, room temperature, OD620, read-out: Max Solub
Protocol: Solubility determinations shown in Table 3 were obtained turbidometrically and in a manner similar to the one described in Perez et al., J. Biomol. Screen, 2015, 20(2), 254-64. The method requires small volumes of 100× stock concentration drug solution to be prepared in DMSO 0, 0.23, 0.47, 0.94, 1.88, 3.75, 7.5, 15.0, 30.0 and […]. The stock drug concentrations are then diluted 1:100 added into triplicate wells containing PBS in a clear bottom 384 well microtiter to achieve final testing concentrations of 0, 2.3, 4.7, 9.4, 18.8, 37.5, 75, 150, 300, 600 μM in 1% DMSO. The plate is allowed to equilibrate with constant shaking for 2 hours at room temperature. The plate is then placed in a SpectroMax V plate reader to measure absorbance at 620 nm. Increase in absorbance is evident in test wells which precipitation of the compound is evident. The plot of OD620 vs. drug concentration is used to calculate the maximum solubility limit as determined by a statistically significant increase in absorbance above the background levels.

| SMILES | solubility at 2 h [µM] |
| --- | --- |
| O=S(=O)(c1ccccc1)C1CCN(c2ccn[nH]2)CC1 [Compound 41, 4-(Phenylsulfonyl)-1-(1H-pyrazol-5-yl)piperidine] | 369 |

Same assay, conditions: PBS with 1% DMSO, aqueous buffer, kinetic from dmso stock, room temperature, read-out: Solubility_ug/mL

| SMILES | solubility at 2 h [µg/mL] |
| --- | --- |
| O=S(=O)(c1ccccc1)C1CCN(c2ccn[nH]2)CC1 [Compound 41, 4-(Phenylsulfonyl)-1-(1H-pyrazol-5-yl)piperidine] | 108 |

Tested on: 20-HETE formation (CYP4) in RKM
Assay: Inhibition of 20-HETE formation at 250 or 500 nM in RKM microsomal incubations
Format: biochemical, rat
Conditions: 500 nM compound; RKM 300 μg/ml
Protocol: To screen the inhibitory effects against 20-HETE formation, compounds were screened in HLM, RLM, RKM and rCYP4F2 microsomal incubations. Compounds dissolved in either 100% methanol or 100% DMSO to yield 10 mM stock solution. Microsomal incubations containing HLM, RLM, RKM (300 μg/ml) or rCYP4F2 (25 pmol/mL), AA (100 μM), NADPH (1 mM) treated with test compounds at various concentrations (500 nM or 250 nM) in a 1 ml total volume in incubation buffer (0.12 M potassium phosphate buffer containing 5 mM magnesium chloride). Reaction was started by adding NADPH to the incubates and was carried out at 37° C. in a shaking water bath for 20 min. Reaction was stopped by placing tubes on ice, followed by adding 125 μl 20-HETE-d6 as internal standard to each sample. Microsomal incubations were extracted with 3 ml ethyl ether twice, dried down under nitrogen gas and reconstituted in 125 μl 80:20 methanol:deionized H2O for analysis. 20-HETE formation was quantified using a validated UPLC-MS/MS assay and normalized by vehicle group. Each compound had three replications (n=3). Vehicle group was used as control to calculate percentage of 20-HETE formation rate. HET0016 (250 nM) was used as positive control. Incubates without NADPH group served as the negative control. An Acquity ultra performance LC autosampler (Waters, Milford, MA) was used to isolate 20-HETE on an UPLC BEH C18, 1.7 μm (2.1×100 mm) reversed-phase column (Waters, Milford, MA) protected by a guard column (2.1×5 mm; Waters, Milford, MA) of the same packing material. Column temperature was maintained at 55° C. Mobile phases consisted of 0.005% acetic acid, 5% acetonitrile in deionized water (A) and 0.005% acetic acid in acetonitrile (B). The flow rate for mobile phases is 0.5 ml/min. The initial mixture of mobile phase was 65:35 of A and B. Mobile phase B increased at 0.4 minutes after injection from 35% to 70% in a linear gradient over 4 minutes, and again increased to 95% over 0.5 minutes where it remained for 0.3 minutes. This was followed by a linear return to initial conditions over 0.1 minutes with a 1.5 minute pre-equilibration period prior to the next sample run. Total run time was 6.4 minutes for each injection. Injection volumes were 7.5 μl. Mass spectrometric analysis was carried out using a TSQ Quantum Ultra (Thermo Fisher Scientific, San Jose, CA) triple quadrupole mass spectrometer using heated electrospray ionization (HESI). Mass spectrometer was operated in negative selective reaction monitoring (SRM) mode with unit resolutions at both Q1 and Q3 set at 0.70 Da full width at half maximum. Scan time was set at 0.01 s and collision gas pressure was 1.3 mTorr. Quantitation of 20-HETE by SRM was performed by monitoring the m/z. Analytical data was acquired and analyzed using Xcaliber 3.0 data system (ThermoFinnigan, San Jose, CA).

| SMILES | RKM % inh. @ 500 nM [%] |
| --- | --- |
| O=S(=O)(c1ccccc1)C1CCN(c2ccn[nH]2)CC1 [Compound 41, 4-(Phenylsulfonyl)-1-(1H-pyrazol-5-yl)piperidine] | 0.00 |
| O=S(=O)(c1ccccc1)C1CCN(c2cn[nH]c2)CC1 [Compound 42, 4-(Phenylsulfonyl)-1-(1H-pyrazol-4-yl)piperidine] | 0.00 |
| COc1ccc(C2CCN(c3ccn[nH]3)CC2)cc1F [Compound 43, 4-(3-Fluoro-4-methoxyphenyl)-1-(1H-pyrazol-5-yl)piperidine] | 31.00 |
| COc1cccc(CC2CCN(c3cn[nH]c3)CC2)c1 [Compound 45, 4-(3-Methoxybenzyl)-1-(1H-pyrazol-4-yl)piperidine] | 0.00 |
| COc1ccc(C2CCN(c3ccn[nH]3)CC2)c(F)c1 [Compound 46, 4-(2-Fluoro-4-methoxyphenyl)-1-(1H-pyrazol-5-yl)piperidine] | 0.00 |
| Fc1cccc(C2CCN(c3ccn[nH]3)CC2)c1 [Compound 48, 4-(3-Fluorophenyl)-1-(1H-pyrazol-5-yl)piperidine] | 8.00 |
| Fc1cccc(C2CCN(c3cn[nH]c3)CC2)c1 [Compound 49, 4-(3-Fluorophenyl)-1-(1H-pyrazol-4-yl)piperidine] | 28.00 |
| Fc1ccccc1C1CCN(c2ccn[nH]2)CC1 [Compound 50, 4-(2-Fluorophenyl)-1-(1H-pyrazol-5-yl)piperidine] | 18.00 |
| Fc1ccccc1C1CCN(c2cn[nH]c2)CC1 [Compound 51, 4-(2-Fluorophenyl)-1-(1H-pyrazol-4-yl)piperidine] | 26.00 |
